Source: patent US9296778B2, “3′,5′-cyclic phosphate prodrugs for HCV infection” (Idenix Pharmaceuticals, Inc., priority 2012, dated 2016)
Where two headings read alike, the source gives them in different places.

How the values were obtained:
[1] = tested on: HCV genotype 1b replicon; experiment: HCV Replicon Assay; assay type: cell-based; conditions: Zluc cells (Huh-7-derived, HCV genotype 1b replicon, luciferase reporter), 72 hours, read-out: HCV Replicon EC50
Description: Huh-7-derived cell line (Zluc) that harbors an HCV genotype 1b replicon and a luciferase reporter gene was grown in Dulbecco's Modified Eagle Medium (DMEM) supplemented with 10% fetal bovine serum, 2 mM GlutaMAX, 1% MEM nonessential amino acids, 100 IU/mL penicillin, 100 μg/mL streptomycin, and 0.5 mg/mL Geneticin® (G418). For dose response testing the cells were seeded in 96-well plates at 7.5×10^3 cells per well in a volume of 50 μL, and incubated at 37° C./5% CO2. Drug solutions were made up freshly in Huh-7 media as 2× stocks. Ten additional 5-fold dilutions were prepared from these stocks in DMEM without G418. At least three hours after Zluc cells were seeded, drug treatment was initiated by adding 50 μL of drug dilutions to the plates in duplicate. Final concentrations of drug ranged from 100 μM to […]. Cells were then incubated at 37° C./5% CO2. Alternatively, compounds were tested at two concentrations (1 μM and 10 μM). […] For this, media was removed from the plates via gentle tapping. Fifty microliters of ONE-glo luciferase assay reagent was added to each well. The plates were shaken gently for 3 min at room temperature and luminescence was measured on a Victor^3 V 1420 multilabel counter (Perkin Elmer) with a 1 second read time using a 700 nm cut-off filter. The EC50 values were calculated from dose response curves from the resulting best-fit equations determined by Microsoft Excel and XLfit 4.1 software. When screening at two fixed concentrations, the results were expressed as % inhibition at 1 μM and 10 μM.

[2] = tested on: Zluc cells; experiment: cytotoxicity evaluation (CellTiter-Blue Cell Viability Assay); conditions: read-out: HCV Replicon CC50; Zluc cells, CellTiter-Blue
[3] = tested on: fresh human hepatocytes; experiment: Release of active metabolite in fresh human hepatocytes; assay type: in vitro ADME; conditions: 10 μM compound; for FHH TP Cmax: fresh human hepatocytes; for FHH TP AUC: fresh human hepatocytes, 6, 24 and 48 hours
Description: Plates of fresh human and mouse hepatocytes were obtained on ice. The medium was removed and replaced with hepatocyte culture medium (William's E supplemented with penicillin-streptomycin, 1% L-glutamine, 1% insulin-transferrin-selenium and 0.1 μM Dexamethasone (Invitrogen) or with Invitro GRO HI medium complemented with Torpedo antibiotics (Celsis)). Cells were left overnight in an incubator at 37° C. to acclimatize to culture and the medium.
Hepatocyte incubations were conducted at a final volume of 0.5 mL hepatocyte culture medium/well (0.8 million cells/well for human and 0.5 million cells/well for mouse; 12 well plate no overlay, collagen coat). Culture medium from overnight incubation of cells was removed and replaced with fresh medium, pre-warmed to 37° C., containing 10 μM of test compound from a stock solution in DMSO (final DMSO concentration was 0.1%). At each specific time point, incubation medium was removed and cell monolayers were carefully washed two times with ice-cold PBS. Following the last wash, all PBS was carefully removed and 1.0 mL of extraction solution (ice-cold 70% methanol/30% water) added. Cells were scraped off and suspended in the extraction solution, transferred to 2 mL polypropylene microfuge tubes and intracellular contents extracted overnight at −20° C.
After the overnight treatment the cellular extracts were prepared by centrifugation at 16,000×g for 10 min to remove cellular debris. The remaining sample was then dried using a refrigerated centrivap concentrator. Dry extracts were reconstituted in 1000 μL of HPLC-grade water and centrifuged at 16,000×g for 10 min. Aliquots (100 μL each) of the supernatant were transferred into a 96 well plate and internal standard (4 ng/mL final concentration) was added as the internal standard (IS) for LC-MS/MS analysis.
The incubation time points were 6, 24 and 48 hours for human hepatocytes and 1, 4, 8, 12 and 24 hours for mouse hepatocytes.

[4] = in vitro; conditions: human, HCV Replicon CC50, Zluc cells, CellTiter-Blue

In the case of `CCOc1nc(N)nc2c1ncn2[C@@H]1O[C@@H]2COP(=O)(OC[C@H](C)NC(=O)OCC(C)C)O[C@H]2[C@@]1(C)F` (single isomer, unassigned; diastereomer 1) [Compound 12 Diastereomer 1], the EC50 [1] is reported as < 250 nM and the CC50 [2] is reported as > 50000 nM.
For `CCOc1nc(N)nc2c1ncn2[C@@H]1O[C@@H]2COP(=O)(OCCSC(=O)C(C)(C)CO)O[C@H]2[C@@]1(C)OC(C)=O` (single isomer, unassigned; diastereomer 1) [Compound 16 Diastereomer 1], the EC50 [1] was < 250 nM and the CC50 [2] was < 50000 nM.
For `CC(C)(CO)C(=O)SCCOP1(=O)OC[C@H]2O[C@@H](n3cnc4c(=O)[nH]c(N)nc43)[C@](C)(F)[C@@H]2O1` (single isomer, unassigned; diastereomer 1) [Compound 17 Diastereomer 1], the EC50 [1] was 250 to 1000 nM and the CC50 [2] was > 50000 nM.
In the case of `CC(=O)OCC(C)(C)C(=O)SCCOP1(=O)OC[C@H]2O[C@@H](n3cnc4c(=O)[nH]c(N)nc43)[C@](C)(F)[C@@H]2O1` (single isomer, unassigned; diastereomer 1) [Compound 18 Diastereomer 1], the EC50 [1] is reported as 250 to 1000 nM and the CC50 [2] is reported as > 50000 nM.
With `CCOc1nc(N)nc2c1ncn2[C@@H]1O[C@@H]2COP(=O)(OCCSC(=O)C(C)(C)COC(C)=O)O[C@H]2[C@@]1(C)OC(C)=O` (single isomer, unassigned; diastereomer 1) [Compound 19 Diastereomer 1] the EC50 [1] was < 250 nM and the CC50 [2] was < 50000 nM.
In the case of `CCOc1nc(N)nc2c1ncn2[C@@H]1O[C@@H]2COP(=O)(OCCC(=O)OC(C)C)O[C@H]2[C@@]1(C)O` (single isomer, unassigned; diastereomer 1) [Compound 22 Diastereomer 1], the EC50 [1] is reported as < 250 nM, the CC50 [2] is reported as > 50000 nM and the “FHH TP Cmax” value [3] is reported as 44 pmol/mill cells. The “FHH TP AUC” value [3] was 1247 pmol · hr/mill cells.
In the case of `COc1nc(N)nc2c1ncn2[C@@H]1O[C@@H]2COP(=O)(OCC(=O)OC(C)C)O[C@H]2[C@@]1(C)F` (single isomer, unassigned; diastereomer 1) [Compound 26 Diastereomer 1], the “FHH TP Cmax” value [3] is reported as “BLD^a” and the “FHH TP AUC” value [3] is reported as “BLD^a”.
With `CCOC(=O)COP1(=O)OC[C@H]2O[C@@H](n3cnc4c(OCC)nc(N)nc43)[C@](C)(F)[C@@H]2O1` (single isomer, unassigned; diastereomer 2) [Compound 7 Diastereomer 2] the EC50 [1] was < 250 nM.
In the case of `CC(C)(CO)C(=O)SCCOP1(=O)OC[C@H]2O[C@@H](n3cnc4c(=O)[nH]c(N)nc43)[C@](C)(F)[C@@H]2O1` (single isomer, unassigned; diastereomer 2) [Compound 17 Diastereomer 2], the EC50 [1] is reported as < 250 nM and the CC50 [2] is reported as < 50000 nM.
For `CC(=O)OCC(C)(C)C(=O)SCCOP1(=O)OC[C@H]2O[C@@H](n3cnc4c(=O)[nH]c(N)nc43)[C@](C)(F)[C@@H]2O1` (single isomer, unassigned; diastereomer 2) [Compound 18 Diastereomer 2], the EC50 [1] was < 250 nM and the CC50 [2] was < 50000 nM.
For `CCOc1nc(N)nc2c1ncn2[C@@H]1O[C@@H]2COP(=O)(OCCSC(=O)C(C)(C)COC(C)=O)O[C@H]2[C@@]1(C)OC(C)=O` (single isomer, unassigned; diastereomer 2) [Compound 19 Diastereomer 2], the EC50 [1] was < 250 nM and the CC50 [2] was < 50000 nM.
With `CCOC(=O)N[C@@H](C)COP1(=O)OC[C@H]2O[C@@H](n3cnc4c(OCC)nc(N)nc43)[C@](C)(F)[C@@H]2O1` (stereo partly drawn) [Compound 11] the EC50 ([1]; Hepatitis C virus, 72 h) was < 250 nM and the CC50 [4] was > 50000 nM.
With `CCOc1nc(N)nc2c1ncn2[C@@H]1O[C@@H]2COP(=O)(OC[C@H](NC(=O)OC)C(=O)OC(C)C)O[C@H]2[C@@]1(C)F` (stereo partly drawn) [Compound 15] the EC50 ([1]; Hepatitis C virus, 72 h) was < 250 nM, the CC50 [4] was > 50000 nM and the “FHH TP Cmax” value [3] was 36 pmol/mill cells. For the same molecule, the “FHH TP AUC” value [3] was 1335 pmol · hr/mill cells.
In the case of `CCOc1nc(N)nc2c1ncn2[C@@H]1O[C@@H]2COP(=O)(OCCC(=O)OC(C)C)O[C@H]2[C@@]1(C)F` (stereo partly drawn) [Compound 21], the EC50 ([1]; Hepatitis C virus, 72 h) is reported as < 250 nM and the CC50 [4] is reported as > 50000 nM.
For `CCOC(=O)CCCOP1(=O)OC[C@H]2O[C@@H](n3cnc4c(OC)nc(N)nc43)[C@](C)(O)[C@@H]2O1` (stereo partly drawn) [Compound 25], the EC50 ([1]; Hepatitis C virus, 72 h) was 250 to 1000 nM and the CC50 [4] was > 50000 nM.
In the case of `COc1nc(N)nc2c1ncn2[C@@H]1O[C@@H]2COP(=O)(OCC(=O)OC(C)C)O[C@H]2[C@@]1(C)F` (stereo partly drawn) [Compound 26], the EC50 ([1]; Hepatitis C virus, 72 h) is reported as < 250 nM and the CC50 [4] is reported as > 50000 nM.
With `COc1nc(N)nc2c1ncn2[C@@H]1O[C@@H]2COP(=O)(OCC(=O)OCc3ccccc3)O[C@H]2[C@@]1(C)O` (stereo partly drawn) [Compound 27] the EC50 ([1]; Hepatitis C virus, 72 h) was < 250 nM and the CC50 [4] was < 50000 nM.
In the case of `COc1nc(N)nc2c1ncn2[C@@H]1O[C@@H]2COP(=O)(OCC(=O)OC(C)C)O[C@H]2[C@@]1(C)O` (stereo partly drawn) [Compound 28], the EC50 ([1]; Hepatitis C virus, 72 h) is reported as < 250 nM and the CC50 [4] is reported as < 50000 nM.
In the case of `CCOC(=O)CCCOP1(=O)OC[C@H]2O[C@@H](n3cnc4c(OC)nc(N)nc43)[C@](C)(O)[C@@H]2O1` (stereo partly drawn) [Compound 29], the EC50 [1] is reported as < 250 nM and the CC50 [2] is reported as < 50000 nM.
With `CCOC(=O)[C@@H](C)OP1(=O)OC[C@H]2O[C@@H](n3cnc4c(OC)nc(N)nc43)C(C)(O)[C@@H]2O1` (stereo partly drawn) [Compound 30] the EC50 ([1]; Hepatitis C virus, 72 h) was 1000 to 10000 nM and the CC50 [4] was > 50000 nM.
For `CCOC(=O)C[C@@H](C)OP1(=O)OC[C@H]2O[C@@H](n3cnc4c(OC)nc(N)nc43)[C@](C)(O)[C@@H]2O1` (stereo partly drawn) [Compound 31], the EC50 ([1]; Hepatitis C virus, 72 h) was 250 to 1000 nM and the CC50 [4] was > 50000 nM.
For `COc1nc(N)nc2c1ncn2[C@@H]1O[C@@H]2COP(=O)(OCC(=O)OC(C)C)O[C@H]2[C@@]1(C)OC(C)=O` (stereo partly drawn) [Compound 32], the EC50 ([1]; Hepatitis C virus, 72 h) was < 250 nM and the CC50 [4] was < 50000 nM.
With `COC(=O)c1ccccc1COP1(=O)OC[C@H]2O[C@@H](n3cnc4c(OC)nc(N)nc43)[C@](C)(O)[C@@H]2O1` (stereo partly drawn) [Compound 33] the EC50 ([1]; Hepatitis C virus, 72 h) was < 250 nM and the CC50 [4] was < 50000 nM.
In the case of `CCOC(=O)OC(C)OP1(=O)OC[C@H]2O[C@@H](n3cnc4c(OC)nc(N)nc43)[C@](C)(O)[C@@H]2O1` (stereo partly drawn) [Compound 34], the EC50 ([1]; Hepatitis C virus, 72 h) is reported as < 250 nM and the CC50 [4] is reported as < 50000 nM.
In the case of `COc1nc(N)nc2c1ncn2[C@@H]1O[C@@H]2COP(=O)(OCCSSCCO)O[C@H]2[C@@]1(C)O` (stereo partly drawn) [Compound 37], the EC50 ([1]; Hepatitis C virus, 72 h) is reported as < 250 nM and the CC50 [4] is reported as < 50000 nM.
In the case of `CCOc1nc(N)nc2c1ncn2[C@@H]1O[C@@H]2COP(=O)(OCCCNC(=O)[C@@H]3OC(C)(C)OCC3(C)C)O[C@H]2[C@@]1(C)O` (stereo partly drawn) [Compound 38], the EC50 ([1]; Hepatitis C virus, 72 h) is reported as < 250 nM and the CC50 [4] is reported as > 50000 nM.
With `CCOc1nc(N)nc2c1ncn2[C@@H]1O[C@@H]2COP(=O)(OCCCNC(=O)[C@H](O)C(C)(C)CO)O[C@H]2[C@@]1(C)O` (stereo partly drawn) [Compound 39] the EC50 ([1]; Hepatitis C virus, 72 h) was < 250 nM and the CC50 [4] was < 50000 nM.
